Data published in US10730863B2, “Bridged bicyclic compounds as farnesoid X receptor modulators” (BRISTOL-MYERS SQUIBB COMPANY, priority 2017, dated 2020).

Biological target: FXR (Homo sapiens (Human), UniProt Q96RI1)
Assay: FXR EC50 (FXR agonist activity reported with each example)
Format: cell-based

FXR, sequence (Q96RI1 262-486): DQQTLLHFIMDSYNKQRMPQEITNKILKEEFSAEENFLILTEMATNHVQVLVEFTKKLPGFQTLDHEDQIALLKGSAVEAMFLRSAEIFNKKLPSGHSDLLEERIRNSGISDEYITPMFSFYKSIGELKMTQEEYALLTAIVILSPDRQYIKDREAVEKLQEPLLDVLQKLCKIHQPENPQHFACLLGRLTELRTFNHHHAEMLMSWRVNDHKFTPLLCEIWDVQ

SMILES | EC50 [nM]
O=C(O)c1ccc(-c2noc(C34CCC(OCc5c(-c6ccccc6C(F)(F)F)noc5C5CC5)(CC3)CC4)n2)cn1 [Example 46] | 2700
O=C(O)c1cccc(-c2noc(C34CCC(OCc5c(-c6ccccc6OC(F)(F)F)noc5C5CC5)(CC3)CC4)n2)n1 [Example 47] | 550
O=C(O)c1cccc(-c2noc(C34CCC(OCc5c(-c6ccccc6C(F)(F)F)noc5C5CC5)(CC3)CC4)n2)n1 [Example 48] | 2100
O=C(O)c1cc(-c2noc(C34CCC(OCc5c(-c6ccccc6OC(F)(F)F)noc5C5CC5)(CC3)CC4)n2)ccn1 [Example 49] | 1200
O=C(O)c1cc(-c2noc(C34CCC(OCc5c(-c6ccccc6C(F)(F)F)noc5C5CC5)(CC3)CC4)n2)ccn1 [Example 50] | 2100
O=C(O)c1cc(F)c2nc(C34CCC(OCc5c(-c6ccccc6C(F)(F)F)noc5C5CC5)(CC3)CC4)sc2c1 [Example 51] | 500
O=C(O)c1cccc(-c2nc(C34CCC(OCc5c(-c6ccccc6OC(F)(F)F)noc5C5CC5)(CC3)CC4)no2)c1 [Example 55] | 250
O=C(O)c1ccc(-c2nc(C34CCC(OCc5c(-c6ccccc6OC(F)(F)F)noc5C5CC5)(CC3)CC4)no2)cc1 [Example 57] | 650
O=C(O)c1cc(-c2nc(C34CCC(OCc5c(-c6ccccc6OC(F)(F)F)noc5C5CC5)(CC3)CC4)no2)ccn1 [Example 58] | 4000
O=C(O)c1cc(-c2nc(C34CCC(OCc5c(-c6ccccc6C(F)(F)F)noc5C5CC5)(CC3)CC4)no2)ccn1 [Example 59] | 3800
O=C(O)c1cccc(-c2nc(C34CCC(OCc5c(-c6ccccc6OC(F)(F)F)noc5C5CC5)(CC3)CC4)no2)n1 [Example 61] | 840
O=C(O)c1ccc2nc(C34CCC(OCc5c(-c6ccccc6OC(F)(F)F)noc5C5CC5)(CC3)CC4)ncc2c1 [Example 62] | 1300
O=C(O)c1cc(-c2noc(C34CCC(OCc5c(-c6c(Cl)cccc6Cl)noc5C5CC5)(CC3)CC4)n2)ccc1F [Example 64, 5-(5-(4-((5-Cyclopropyl-3-(2,6-dichlorophenyl)isoxazol-4-yl)methoxy)bicyclo[2.2.2]octan-1-yl)-1,2,4-oxadiazol-3-yl)-2-fluorobenzoic acid] | 140
Clc1cccc(Cl)c1-c1noc(C2CC2)c1COC12CCC(c3nc4ccc(-c5nnn[nH]5)cc4s3)(CC1)CC2 [Example 66, 4-(((4-(6-(1H-tetrazol-5-yl)benzo[d]thiazol-2-yl)bicyclo[2.2.2]octan-1-yl)oxy)methyl)-5-cyclopropyl-3-(2,6-dichlorophenyl)isoxazole] | 390
O=C(O)c1c(F)ccc(-c2noc(C34CCC(OCc5c(-c6c(Cl)cccc6Cl)noc5C5CC5)(CC3)CC4)n2)c1F [Example 68, 3-(5-(4-((5-Cyclopropyl-3-(2,6-dichlorophenyl)isoxazol-4-yl)methoxy)bicyclo[2.2.2]octan-1-yl)-1,2,4-oxadiazol-3-yl)-2,6-difluorobenzoic acid] | 250
COc1ccc(-c2noc(C34CCC(OCc5c(-c6c(Cl)cncc6Cl)noc5C5CC5)(CC3)CC4)n2)cc1C(=O)O [Example 69, 5-(5-(4-((5-Cyclopropyl-3-(3,5-dichloropyridin-4-yl)isoxazol-4-yl)methoxy)bicyclo[2.2.2]octan-1-yl)-1,2,4-oxadiazol-3-yl)-2-methoxybenzoic acid] | 56
Cn1nc(-c2nc(C34CCC(OCc5c(-c6c(Cl)cccc6Cl)noc5C5CC5)(CC3)CC4)no2)cc1C(=O)O [Example 70, 3-(3-(4-((5-Cyclopropyl-3-(2,6-dichlorophenyl)isoxazol-4-yl)methoxy)bicyclo[2.2.2]octan-1-yl)-1,2,4-oxadiazol-5-yl)-1-methyl-1H-pyrazole-5-carboxylic acid] | 430
O=C(O)c1cccc(-c2noc(C34CCC(OCc5c(-c6c(Cl)cncc6Cl)noc5C5CC5)(CC3)CC4)n2)c1F [Example 71, 3-(5-(4-((5-Cyclopropyl-3-(3,5-dichloropyridin-4-yl)isoxazol-4-yl)methoxy)bicyclo[2.2.2]octan-1-yl)-1,2,4-oxadiazol-3-yl)-2-fluorobenzoic acid] | 69
O=C(O)Cc1noc(C23CCC(OCc4c(-c5c(Cl)cccc5Cl)noc4C4CC4)(CC2)CC3)n1 [Example 72, 2-(5-(4-((5-cyclopropyl-3-(2,6-dichlorophenyl)isoxazol-4-yl)methoxy)bicyclo[2.2.2]octan-1-yl)-1,2,4-oxadiazol-3-yl)acetic acid] | 3100
OCc1noc(C23CCC(OCc4c(-c5c(Cl)cccc5Cl)noc4C4CC4)(CC2)CC3)n1 [Example 73, (5-(4-((5-cyclopropyl-3-(2,6-dichlorophenyl)isoxazol-4-yl)methoxy)bicyclo[2.2.2]octan-1-yl)-1,2,4-oxadiazol-3-yl)methanol] | 600

SMILES | EC50 [nM]
NC(=O)c1noc(C23CCC(OCc4c(-c5c(Cl)cccc5Cl)noc4C4CC4)(CC2)CC3)n1 [Example 74, 5-(4-((5-cyclopropyl-3-(2,6-dichlorophenyl)isoxazol-4-yl)methoxy)bicyclo[2.2.2]octan-1-yl)-1,2,4-oxadiazole-3-carboxamide] | 520
O=C(O)c1cnn(CC23CCC(OCc4c(-c5c(Cl)cccc5Cl)noc4C4CC4)(CC2)CC3)c1 [Example 76, 1-((4-((5-cyclopropyl-3-(2,6-dichlorophenyl)isoxazol-4-yl)methoxy)bicyclo[2.2.2]octan-1-yl)methyl)-1H-pyrazole-4-carboxylic acid] | 290
O=C(O)c1cccc(OCC23CCC(OCc4c(-c5ccccc5OC(F)(F)F)noc4C4CC4)(CC2)CC3)c1 [Example 77] | 180
O=C(O)c1cc(F)c2nc(OCC34CCC(OCc5c(-c6ccccc6OC(F)(F)F)noc5C5CC5)(CC3)CC4)sc2c1 [Example 79] | 130
O=C(O)[C@@H]1CCC[C@H](OCC23CCC(OCc4c(-c5ccccc5OC(F)(F)F)noc4C4CC4)(CC2)CC3)C1 [Example 80] | 5100
O=C(O)[C@@H]1CCC[C@H](OCC23CCC(OCc4c(-c5ccccc5OC(F)(F)F)noc4C4CC4)(CC2)CC3)C1 [Example 81] | 4700
O=C(O)c1cccc(OCC23CCC(OCc4c(-c5c(Cl)cccc5Cl)noc4C4CC4)(CC2)CC3)c1 [Example 82, 3-((4-((5-cyclopropyl-3-(2,6-dichlorophenyl)isoxazol-4-yl)methoxy)bicyclo[2.2.2]octan-1-yl)methoxy) benzoic acid] | 22
O=C(O)c1cc(F)c2nc(OCC34CCC(OCc5c(-c6c(Cl)cccc6Cl)noc5C5CC5)(CC3)CC4)sc2c1 [Example 83, 2-((4-((5-cyclopropyl-3-(2,6-dichlorophenyl)isoxazol-4-yl)methoxy)bicyclo[2.2.2]octan-1-yl)methoxy)-4-fluorobenzo[d]thiazole-6-carboxylic acid] | 18
Cn1cc(C(=O)O)c2ccc(OCC34CCC(OCc5c(-c6ccccc6OC(F)(F)F)noc5C5CC5)(CC3)CC4)cc21 [Example 84] | 320
O=C(O)c1cccc(NCC23CCC(OCc4c(-c5ccccc5OC(F)(F)F)noc4C4CC4)(CC2)CC3)c1 [Example 85] | 610
N#Cc1cccc(OCC23CCC(OCc4c(-c5c(Cl)cccc5Cl)noc4C4CC4)(CC2)CC3)c1 [Example 88, 3-((4-((5-cyclopropyl-3-(2,6-dichlorophenyl)isoxazol-4-yl)methoxy)bicyclo[2.2.2]octan-1-yl)methoxy)benzonitrile] | 960
Clc1cccc(Cl)c1-c1noc(C2CC2)c1COC12CCC(COc3cccc(-c4nn[nH]n4)c3)(CC1)CC2 [Example 89, 4-((4-((3-(2H-tetrazol-5-yl)phenoxy)methyl)bicyclo[2.2.2]octan-1-yloxy)methyl)-5-cyclopropyl-3-(2,6-dichlorophenyl)isoxazole] | 120
Cn1cc(C(=O)O)c2ccc(OCC34CCC(OCc5c(-c6c(Cl)cccc6Cl)noc5C5CC5)(CC3)CC4)cc21 [Example 90, 6-((4-((5-cyclopropyl-3-(2,6-dichlorophenyl)isoxazol-4-yl)methoxy)bicyclo[2.2.2]octan-1-yl)methoxy)-1-methyl-1H-indole-3-carboxylic acid] | 11
O=C(O)c1cccc(OCC23CCC(OCc4c(-c5c(Cl)cncc5Cl)noc4C4CC4)(CC2)CC3)c1 [Example 91, 3-((4-((5-cyclopropyl-3-(3,5-dichloropyridin-4-yl)isoxazol-4-yl)methoxy)bicyclo[2.2.2]octan-1-yl)methoxy) benzoic acid] | 33
O=C(O)c1ccc(F)c(OCC23CCC(OCc4c(-c5c(Cl)cccc5Cl)noc4C4CC4)(CC2)CC3)c1 [Example 92, 3-((4-((5-cyclopropyl-3-(2,6-dichlorophenyl)isoxazol-4-yl)methoxy)bicyclo[2.2.2]octan-1-yl)methoxy)-4-fluorobenzoic acid] | 23
O=C(O)c1cc(OCC23CCC(OCc4c(-c5c(Cl)cccc5Cl)noc4C4CC4)(CC2)CC3)ccc1F [Example 93, 5-((4-((5-cyclopropyl-3-(2,6-dichlorophenyl)isoxazol-4-yl)methoxy)bicyclo[2.2.2]octan-1-yl)methoxy)-2-fluorobenzoic acid] | 32
O=C(O)c1cc(F)cc(OCC23CCC(OCc4c(-c5c(Cl)cccc5Cl)noc4C4CC4)(CC2)CC3)c1 [Example 94, 3-((4-((5-cyclopropyl-3-(2,6-dichlorophenyl)isoxazol-4-yl)methoxy)bicyclo[2.2.2]octan-1-yl)methoxy)-5-fluorobenzoic acid] | 18
Cc1c(OCC23CCC(OCc4c(-c5c(Cl)cccc5Cl)noc4C4CC4)(CC2)CC3)cccc1C(=O)O [Example 95, 3-((4-((5-cyclopropyl-3-(2,6-dichlorophenyl)isoxazol-4-yl)methoxy)bicyclo[2.2.2]octan-1-yl)methoxy)-2-methylbenzoic acid] | 400
O=C(O)c1cccc(OCC23CCC(OCc4c(-c5c(Cl)cccc5Cl)noc4C4CC4)(CC2)CC3)c1F [Example 96, 3-((4-((5-cyclopropyl-3-(2,6-dichlorophenyl)isoxazol-4-yl)methoxy)bicyclo[2.2.2]octan-1-yl)methoxy)-2-fluorobenzoic acid] | 120
